# Experimental data from PMC6562704, “Antihypertensive Effect in Vivo of QAGLSPVR and Its Transepithelial Transport Through the Caco-2 Cell Monolayer” (Marine Drugs, 2019).
# Ends that are not written are not given here.
# Tests used:
# [1] = test system: Caco-2 cell monolayer; conditions: cited from earlier work
# Procedure: QAGLSPVR was proven to produce a clear antihypertensive effect on SHRs in this study. To validate whether QAGLSPVR could be completely absorbed to regulate blood pressure, the transport percentage of QAGLSPVR was evaluated via the Caco-2 cell monolayer model. Caco-2 cells can be used as an in vitro model of the human intestinal epithelium due to the various brush border membrane enzymes characterizing these cells. At least eight membrane enzymes are expressed by Caco-2 cells. The brush border membrane enzymes are membrane peptidases and can hydrolyze peptides into short fragments prior ...
# [2] = biological target: angiotensin-I-converting enzyme (ACE); conditions: in vitro; read-out: IC50 for ACEI activity in vitro; cited from earlier work
# Excerpt: In our previous studies, enzymatic hydrolysates of tilapia skin gelatin were obtained using simulated gastrointestinal digestion. The hydrolysates were isolated and purified, and QAGLSPVR was obtained by successive chromatography of the gelatin hydrolysates. […] The present study aims to confirm the in vivo antihypertensive effect of QAGLSPVR by using the SHR model. […] Bioactive peptides are exposed through systemic circulation in human tissues. Unfortunately, bioactive peptides may be hydrolyzed before they reach the target tissues during passage through and absorption by the small intestine. […] For example, FKGRYYP was identified from ch ...
# [3] = test system: SHRs; conditions: cited from earlier work
# Excerpt: Bioactive peptides are exposed through systemic circulation in human tissues. Unfortunately, bioactive peptides may be hydrolyzed before they reach the target tissues during passage through and absorption by the small intestine. […] For example, FKGRYYP was identified from ch ...
# [4] = test system: Caco-2 cell monolayer; test: Transepithelial transport through the Caco-2 cell monolayer; assay type: in vitro ADME, human
# Procedure: Caco-2 cells (1 × 10^5 cells/well) were routinely cultured in Dublecco’s modified Eagle’s medium with 15% FBS, […] streptomycin and 100 U/mL penicillin. Caco-2 cell monolayer was cultured in six-well Transwell plastic plates in a humidified incubator with 5% CO2 at 37 °C and Caco-2 cell monolayer can be used to perform transport experiments when the transepithelial resistance is higher than 400 Ω/cm^2 [29]. The Caco-2 cell culture medium was substituted with Hank’s balanced salt solution (HBSS) buffer (preheated at 37 °C for 30 min) prior to the transport experiment. The cell monolayer was cultured in HBSS buffer and maintained at 37 °C for 2 h. QAGLSPVR (2 mg/mL, 1.5 mL, dissolved in HBSS) was added to the AP of the cell monolayer, while HBSS buffer (2.5 mL) was added to the BL. The Caco-2 cell monolayer was cultured for 0.5, 1, or 2 h in an incubator at 37 °C. The AP and BL fractions were collected at different times. QAGLSPVR concentrations in the BL were detected by UPLC-Q-Orbitrap-MS^2 analysis according to our previous method, and the transport percentages of QAGLSPVR at different times were calculated.
# The transport patterns of QAGLSPVR through the Caco-2 cell monolayer were studied using different transport inhibitors and enhancers. In brief, Gly-Sar, wortmannin, and cytochalasin D were dissolved in DMSO (final concentration of DMSO in HBSS = 0.05%) and final concentrations of25 mM, 500 nM, and 0.5 μg/mL, respectively. The Caco-2 cell monolayer was pre-incubated with Gly-Sar (a peptide transporter PepT1 substrate), wortmannin (atranscytosis inhibitor), or cytochalasin D (a TJ disruptor)for 30 min followed by addition of 1.5 mL of 2 mg/mL QAGLSPVR to the AP and 2.5 mL of fresh HBSS to the BL. After 2 h of incubation, the QAGLSPVR content in the BL was determined via UPLC-Q-Orbitrap-MS^2 analysis according to our previous method, and transport percentages were calculated.
substance,measurement,setting,value
RKQLQGVN,absorption through the Caco-2 cell monolayer (in words),[1],absorbed intact
QIGLF,absorption through the Caco-2 cell monolayer (in words),[1],absorbed intact
FKGRYYP [peptide identified from chicken muscle hydrolysates],IC50,[2],550 µM
same,antihypertensive activity after oral administration to SHRs (in words),[3],no antihypertensive activity
YLGYLEQ,absorption through the Caco-2 cell monolayer (in words),[1],absorbed intact
QAGLSPVR [QAGLSPVR],effect of cytochalasin D on QAGLSPVR transport (in words),"[4]; Caco-2, AP to BL, 30 min pre-incubation with 0.5 μg/mL cytochalasin D (TJ disruptor), 2 mg/mL peptide, HBSS, 2 h, UPLC-Q-Orbitrap-MS^2, p < 0.05",significantly increased
same,effect of wortmannin on QAGLSPVR transport (in words),"[4]; Caco-2, AP to BL, 30 min pre-incubation with 500 nM wortmannin (transcytosis inhibitor), 2 mg/mL peptide, HBSS, 2 h, UPLC-Q-Orbitrap-MS^2, p > 0.05",did not significantly affect
same,effect of Gly-Sar on QAGLSPVR transport (in words),"[4]; Caco-2, AP to BL, 30 min pre-incubation with 25 mM Gly-Sar (PepT1 substrate), 2 mg/mL peptide, HBSS, 2 h, UPLC-Q-Orbitrap-MS^2, p > 0.05",no significant effect
same,integrity on transport through the Caco-2 cell monolayer (in words),"[4]; Caco-2 monolayer, AP to BL, HBSS, 2 mg/mL, 37 °C, 0.5-2 h, UPLC-Q-Orbitrap-MS^2",transported intact
same,transport percentage,"[4]; Caco-2 monolayer, AP to BL, six-well Transwell, transepithelial resistance > 400 Ω/cm^2, HBSS, 2 mg/mL peptide (1.5 mL) in AP, 2.5 mL HBSS in BL, 37 °C, 2 h, UPLC-Q-Orbitrap-MS^2, mean ± SD",3.5%
TNGIIR,absorption through the Caco-2 cell monolayer (in words),[1],absorbed intact
